Laboratory results reported in the NIST ThermoML archive (doi:10.1016/j.fluid.2018.05.028).

What was measured:
[1] = 101 kPa, Liquid; for viscosity: Concentric cylinders viscometry; for speed of sound: Single path-length method; for mass density: Vibrating tube method
[2] = refractive index (Na D-line) (dimensionless); settings: 101 kPa, Liquid, Standard Abbe refractometry
[3] = refractive index (Na D-line) (dimensionless); xn = mol fraction of the nth substance listed; settings: 101 kPa, Liquid, Standard Abbe refractometry, x1 = 1
[4] = xn = mol fraction of the nth substance listed; settings: 101 kPa, Liquid, x1 = 1; for viscosity: Concentric cylinders viscometry; for speed of sound: Single path-length method; for mass density: Vibrating tube method

CCCCO [butan-1-ol]
Settings	mass density, [1] [kg/m3]	refractive index, [2]	speed of sound, [1] [m/s]	viscosity, [1] [mPa·s]
298.15 K	805.98	1.3979	1239.6	2.531
303.15 K	802.13	1.3959	1222.8	2.232
308.15 K	798.25	1.3938	1206	1.975

CCCCO [butan-1-ol] + CCCCCCCCCCCCCCCC
Settings	mass density, [4] [kg/m3]	refractive index, [3]	speed of sound, [4] [m/s]	viscosity, [4] [mPa·s]
293.15 K	809.8	1.3999	1256.6	2.868
298.15 K	805.98	1.3979	1239.6	2.531
303.15 K	802.13	1.3959	1222.8	2.232
308.15 K	798.25	1.3938	1206	1.975
313.15 K	794.35	1.3918	1189.4	1.758
318.15 K	790.41	1.3897	1172.8	1.563
323.15 K	786.42	1.3876	1156.2	1.399
328.15 K	782.39	1.3855	1139.7	1.256
333.15 K	778.3	1.3833	1123.2	1.131
338.15 K	774.15	1.381	1106.6	1.021
343.15 K	769.94	1.3788	1090.1	0.925

CCCCCCCC/C=C\CCCCCCCC(=O)OCC [ethyl (Z)-9-octadeceneoate]
Settings	mass density, [1] [kg/m3]	refractive index, [2]	speed of sound, [1] [m/s]	viscosity, [1] [mPa·s]
298.15 K	865.23	1.4481	1376.2	5.674
303.15 K	861.6	1.4461	1358.4	4.999
308.15 K	857.97	1.4441	1340.8	4.435

CCCCCCCCCCCCCCCC [hexadecane]
Settings	mass density, [1] [kg/m3]	refractive index, [2]	speed of sound, [1] [m/s]	viscosity, [1] [mPa·s]
298.15 K	769.87	1.4318	1338.5	3.035
303.15 K	766.4	1.4296	1319.8	2.708
308.15 K	762.95	1.4275	1301.3	2.432

CCCO [propan-1-ol]
Settings	mass density, [1] [kg/m3]	refractive index, [2]	speed of sound, [1] [m/s]	viscosity, [1] [mPa·s]
298.15 K	799.93	1.3831	1205.7	1.926
303.15 K	795.89	1.381	1188.6	1.716
308.15 K	791.82	1.3789	1171.6	1.532

CCCO [propan-1-ol] + CCCCCCCC/C=C\CCCCCCCC(=O)OCC
Settings	mass density, [4] [kg/m3]	refractive index, [3]	speed of sound, [4] [m/s]	viscosity, [4] [mPa·s]
293.15 K	803.95	1.3852	1223	2.147
298.15 K	799.93	1.3831	1205.7	1.926
303.15 K	795.89	1.381	1188.6	1.716
308.15 K	791.82	1.3789	1171.6	1.532
313.15 K	787.71	1.3768	1154.7	1.379
318.15 K	783.56	1.3747	1137.9	1.234
323.15 K	779.36	1.3726	1121.1	1.112
328.15 K	775.1	1.3704	1104.3	1.004
333.15 K	770.78	1.3682	1087.5	0.9109
338.15 K	766.4	1.366	1070.6	0.8241
343.15 K	761.93	1.3635	1053.8	0.7468

CCCO [propan-1-ol] + CCCCCCCCCCCCCCCC
Settings	mass density, [4] [kg/m3]	refractive index, [3]	speed of sound, [4] [m/s]	viscosity, [4] [mPa·s]
293.15 K	803.95	1.3852	1223	2.147
298.15 K	799.93	1.3831	1205.7	1.926
303.15 K	795.89	1.381	1188.6	1.716
308.15 K	791.82	1.3789	1171.6	1.532
313.15 K	787.71	1.3768	1154.7	1.379
318.15 K	783.56	1.3747	1137.9	1.234
323.15 K	779.36	1.3726	1121.1	1.112
328.15 K	775.1	1.3704	1104.3	1.004
333.15 K	770.78	1.3682	1087.5	0.9109
338.15 K	766.4	1.366	1070.6	0.8241
343.15 K	761.93	1.3635	1053.8	0.7468
